From patent US8637499B2, “Benzoxazepines as inhibitors of PI3K/mTOR and methods of their use and manufacture” (Exelixis, Inc., priority 2009, dated 2014)

How the values were obtained:
[1] = target: PI3Kα (Homo sapiens, UniProt P42336); test: PI3K Biochemical Assays (ATP consumption, luciferase-luciferin chemiluminescence); settings: PI3Kα 1.5 nM, ATP 1 μM, PIP2 10 μM; percent of ATP consumed
Experimental: PI3Kα activity is measured as the percent of ATP consumed following the kinase reaction using luciferase-luciferin-coupled chemiluminescence. Reactions were conducted in 384-well white, medium binding microtiter plates (Greiner). Kinase reactions were initiated by combining test compounds, ATP, substrate (PIP2), and kinase in a 20 μL volume in a buffer solution. The standard PI3Kalpha assay buffer is composed 50 mM Tris, pH 7.5, 1 mM EGTA, 10 mM MgCl2, 1 mM DTT and 0.03% CHAPS. The standard assay concentrations for enzyme, ATP, and substrate are 1.5 nM, 1 μM, and 10 μM, respectively. The reaction mixture was incubated at ambient temperature for approximately 2 h. Following the kinase reaction, a 10 μL aliquot of luciferase-luciferin mix (Promega Kinase-Glo) was added and the chemiluminescence signal measured using a Victor2 plate reader (Perkin Elmer). Total ATP consumption was limited to 40-60% and IC50 values of control compounds correlate well with literature references. Substituting PI3Kα with PI3KIβ, […], or […], the inhibitory activity of the compounds for the other isoforms of I3K were measured.

[2] = target: mTORC1 (mTOR/GbL/Raptor) (Homo sapiens, UniProt P42345); test: mTOR/GbL/Raptor (mTORC1) ELISA Assay; type: biochemical; settings: 0.2 nM mTORC1, 10 μM ATP, 50 nM NHis-tagged 4E-BP1; phosphorylation of 4E-BP1; read-out: IC50
Experimental: mTOR/GbL/Raptor (mTORC1) ELISA Assay
The measurement of mTORC1 enzyme activity was performed in an ELISA assay format following the phosphorylation of 4E-BP1 protein. All experiments were performed in the 384-well format. Generally, 0.5 μL DMSO containing varying concentrations of the test compound was mixed with 15 μL enzyme solution. Kinase reactions were initiated with the addition of 15 μL of substrates-containing solution. The assay conditions were as follows; 0.2 nM mTORC1, 10 μM ATP and 50 nM NHis-tagged 4E-BP1 in 20 mM Hepes, pH 7.2, 1 mM DTT, 50 mM NaCl, 10 mM MnCl2, 0.02 mg/mL BSA, 0.01% CHAPS, 50 mM β-glycerophosphate. Following an incubation of 120 minutes at ambient temperature, 20 μL of the reaction volume was transferred to a Ni-Chelate-coated 384-well plate. The binding step of the 4E-BP1 protein proceeded for 60 minutes, followed by washing 4 times each with 50 μL of Tris-buffered saline solution (TBS). Anti-phospho-4E-BP1 rabbit-IgG (20 μL, 1:5000) in 5% BSA-TBST (0.2% Tween-20 in TBS) was added and further incubated for 60 minutes. Incubation with a secondary HRP-tagged anti-IgG was similarly performed after washing off the primary antibody (4 washes of 50 μL). Following the final wash step with TBST, 20 μL of SuperSignal ELISA Femto (Pierce Biotechnology) was added and the luminescence measured using an EnVision plate reader.

Sequence of PI3Kα (P42336 whole entry): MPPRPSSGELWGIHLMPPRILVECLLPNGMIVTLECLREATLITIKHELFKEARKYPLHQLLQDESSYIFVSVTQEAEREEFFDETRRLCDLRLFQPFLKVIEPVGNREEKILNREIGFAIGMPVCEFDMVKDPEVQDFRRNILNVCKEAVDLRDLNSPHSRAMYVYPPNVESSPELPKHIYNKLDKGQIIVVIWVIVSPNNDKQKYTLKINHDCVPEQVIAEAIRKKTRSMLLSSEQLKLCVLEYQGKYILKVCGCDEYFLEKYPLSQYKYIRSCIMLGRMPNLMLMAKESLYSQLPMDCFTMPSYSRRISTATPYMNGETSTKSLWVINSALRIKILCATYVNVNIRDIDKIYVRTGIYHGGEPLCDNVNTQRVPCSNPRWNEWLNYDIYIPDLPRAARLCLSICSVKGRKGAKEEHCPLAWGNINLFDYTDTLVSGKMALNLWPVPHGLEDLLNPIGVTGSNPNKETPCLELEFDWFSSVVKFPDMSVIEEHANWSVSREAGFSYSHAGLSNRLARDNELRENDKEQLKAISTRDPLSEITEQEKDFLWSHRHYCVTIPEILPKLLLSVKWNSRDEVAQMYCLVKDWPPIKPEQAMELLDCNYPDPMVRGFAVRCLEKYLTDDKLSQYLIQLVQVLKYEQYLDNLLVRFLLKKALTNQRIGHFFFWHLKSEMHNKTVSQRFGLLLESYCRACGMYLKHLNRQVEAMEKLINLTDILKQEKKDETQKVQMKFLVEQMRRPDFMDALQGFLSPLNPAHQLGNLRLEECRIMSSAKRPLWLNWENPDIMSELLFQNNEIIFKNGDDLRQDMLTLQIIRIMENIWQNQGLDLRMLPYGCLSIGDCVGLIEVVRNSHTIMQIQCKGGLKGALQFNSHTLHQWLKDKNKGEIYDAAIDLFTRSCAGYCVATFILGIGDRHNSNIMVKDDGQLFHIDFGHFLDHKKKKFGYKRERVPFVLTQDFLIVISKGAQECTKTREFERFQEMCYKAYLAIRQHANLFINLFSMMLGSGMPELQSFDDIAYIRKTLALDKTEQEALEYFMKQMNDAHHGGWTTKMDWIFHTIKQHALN
Sequence of PI3Kα (P27986 whole entry partner): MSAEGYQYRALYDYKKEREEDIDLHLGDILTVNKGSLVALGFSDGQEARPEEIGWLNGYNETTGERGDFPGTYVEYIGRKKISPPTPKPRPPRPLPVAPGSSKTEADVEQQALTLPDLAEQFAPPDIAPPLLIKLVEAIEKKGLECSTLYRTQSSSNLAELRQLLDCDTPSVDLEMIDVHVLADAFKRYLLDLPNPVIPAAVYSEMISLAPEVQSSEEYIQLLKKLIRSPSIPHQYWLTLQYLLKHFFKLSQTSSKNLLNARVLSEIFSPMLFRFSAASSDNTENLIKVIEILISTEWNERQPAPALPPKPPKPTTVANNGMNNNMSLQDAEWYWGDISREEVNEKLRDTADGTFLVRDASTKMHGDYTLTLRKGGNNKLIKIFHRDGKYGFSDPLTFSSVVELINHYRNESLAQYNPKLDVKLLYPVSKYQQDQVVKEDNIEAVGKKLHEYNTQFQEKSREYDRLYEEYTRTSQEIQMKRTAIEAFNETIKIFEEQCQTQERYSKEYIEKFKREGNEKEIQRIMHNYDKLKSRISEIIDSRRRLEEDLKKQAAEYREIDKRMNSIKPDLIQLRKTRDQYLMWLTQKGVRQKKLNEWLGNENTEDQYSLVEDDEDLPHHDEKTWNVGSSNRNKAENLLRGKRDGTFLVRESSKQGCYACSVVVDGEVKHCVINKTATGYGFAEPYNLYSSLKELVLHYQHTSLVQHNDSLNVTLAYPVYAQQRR

SMILES	IC50 [1] [µM]	IC50 [2] [µM]
COC(=O)Nc1nc2ccc(-c3ccc4c(c3)CN(C(=O)N3CCC(=O)CC3c3cccc(F)c3)CCO4)cc2[nH]1 (centres unmarked) [Compound 11, methyl [6-(4-{[2-(3-fluorophenyl)-4-oxopiperidin-1-yl]carbonyl}-2,3,4,5-tetrahydro-1,4-benzoxazepin-7-yl)-1H-benzimidazol-2-yl]carbamate]	≤ 0.075	0.05 to 0.25
COC(=O)Nc1nc2ccc(-c3ccc4c(c3)CN(C(=O)N3CCCCC3c3ccc(F)cc3)CCO4)cc2[nH]1 (centres unmarked) [Compound 12, methyl [6-(4-{[2-(4-fluorophenyl)piperidin-1-yl]carbonyl}-2,3,4,5-tetrahydro-1,4-benzoxazepin-7-yl)-1H-benzimidazol-2-yl]carbamate]	≤ 0.075	0.05 to 0.25
COC(=O)Nc1nc2ccc(-c3ccc4c(c3)CN(C(=O)N3CCC(CF)CC3)CCO4)cc2[nH]1 [Compound 13, methyl [6-(4-{[4-(fluoromethyl)piperidin-1-yl]carbonyl}-2,3,4,5-tetrahydro-1,4-benzoxazepin-7-yl)-1H-benzimidazol-2-yl]carbamate]	0.075 to 0.2	0.05 to 0.25
COC(=O)Nc1nc2ccc(-c3ccc4c(c3)CN(C(=O)N3CCC(=O)CC3c3ccc(F)cc3)CCO4)cc2[nH]1 (centres unmarked) [Compound 14, methyl [6-(4-{[2-(4-fluorophenyl)-4-oxopiperidin-1-yl]carbonyl}-2,3,4,5-tetrahydro-1,4-benzoxazepin-7-yl)-1H-benzimidazol-2-yl]carbamate]	≤ 0.075	0.05 to 0.25
COC(=O)Nc1nc2ccc(-c3ccc4c(c3)CN(C(=O)N3CCC(O)(CF)CC3)CCO4)cc2[nH]1 [Compound 15, methyl [6-(4-{[4-(fluoromethyl)-4-hydroxypiperidin-1-yl]carbonyl}-2,3,4,5-tetrahydro-1,4-benzoxazepin-7-yl)-1H-benzimidazol-2-yl]carbamate]	0.2 to 0.5	0.05 to 0.25
COC(=O)Nc1nc2ccc(-c3ccc4c(c3)CN(C(=O)N3CCC(=O)CC3c3ccc(F)c(F)c3)CCO4)cc2[nH]1 (centres unmarked) [Compound 16, methyl [6-(4-{[2-(3,4-difluorophenyl)-4-oxopiperidin-1-yl]carbonyl}-2,3,4,5-tetrahydro-1,4-benzoxazepin-7-yl)-1H-benzimidazol-2-yl]carbamate]	≤ 0.075	0.05 to 0.25
COC(=O)Nc1nc2ccc(-c3ccc4c(c3)CN(C(=O)N3CCC(O)(c5cccc(C(F)(F)F)c5)CC3)CCO4)cc2[nH]1 [Compound 18, methyl {6-[4-({4-hydroxy-4-[3-(trifluoromethyl)phenyl]piperidin-1-yl}carbonyl)-2,3,4,5-tetrahydro-1,4-benzoxazepin-7-yl]-1H-benzimidazol-2-yl}carbamate]	≤ 0.075	0.05 to 0.25
COC(=O)Nc1nc2ccc(-c3ccc4c(c3)CN(C(=O)N3CCC(C(F)F)CC3)CCO4)cc2[nH]1 [Compound 19, methyl [6-(4-{[4-(difluoromethyl)piperidin-1-yl]carbonyl}-2,3,4,5-tetrahydro-1,4-benzoxazepin-7-yl)-1H-benzimidazol-2-yl]carbamate]	0.2 to 0.5	0.05 to 0.25
COC(=O)Nc1nc2ccc(-c3ccc4c(c3)CN(C(=O)N3[C@@H]5CC[C@H]3C[C@](O)(C(F)(F)F)C5)CCO4)cc2[nH]1 [Compound 20, methyl [6-(4-{[3-(endo)-hydroxy-3-(trifluoromethyl)-8-azabicyclo[3.2.1]oct-8-yl]carbonyl}-2,3,4,5-tetrahydro-1,4-benzoxazepin-7-yl)-1H-benzimidazol-2-yl]carbamate]	≤ 0.075	≤ 0.05
COC(=O)Nc1nc2ccc(-c3ccc4c(c3)CN(C(=O)N3CCC(C#N)CC3)CCO4)cc2[nH]1 [Compound 21, methyl (6-{4-[(4-cyanopiperidin-1-yl)carbonyl]-2,3,4,5-tetrahydro-1,4-benzoxazepin-7-yl}-1H-benzimidazol-2-yl)carbamate]	0.075 to 0.2	0.05 to 0.25
COC(=O)Nc1nc2ccc(-c3ccc4c(c3)CN(C(=O)N3CCC(O)(C(F)(F)F)CC3)CCO4)cc2[nH]1 [Compound 22, methyl [6-(4-{[4-hydroxy-4-(trifluoromethyl)piperidin-1-yl]carbonyl}-2,3,4,5-tetrahydro-1,4-benzoxazepin-7-yl)-1H-benzimidazol-2-yl]carbamate]	0.2 to 0.5	≤ 0.05
CC1(O)CCN(C(=O)N2CCOc3ccc(-c4ccc5nc(N)[nH]c5c4)cc3C2)CC1 [Compound 23, 1-{[7-(2-amino-1H-benzimidazol-6-yl)-2,3-dihydro-1,4-benzoxazepin-4(5H)-yl]carbonyl}-4-methylpiperidin-4-ol]	0.075 to 0.2	≤ 0.05
COC(=O)Nc1nc2ccc(-c3ccc4c(c3)CN(C(=O)N3CCC(C)(O)CC3)CCO4)cc2[nH]1 [Compound 24, methyl (6-{4-[(4-hydroxy-4-methylpiperidin-1-yl)carbonyl]-2,3,4,5-tetrahydro-1,4-benzoxazepin-7-yl}-1H-benzimidazol-2-yl)carbamate]	0.2 to 0.5	0.25 to 0.7
COC(=O)Nc1nc2ccc(-c3ccc4c(c3)CN(C(=O)N3C5CCC3CC(=O)C5)CCO4)cc2[nH]1 [Compound 25, methyl (6-{4-[(3-oxo-8-azabicyclo[3.2.1]oct-8-yl)carbonyl]-2,3,4,5-tetrahydro-1,4-benzoxazepin-7-yl}-1H-benzimidazol-2-yl)carbamate]	0.2 to 0.5	0.05 to 0.25
Nc1nc2ccc(-c3ccc4c(c3)CN(C(=O)N3CCC(CF)CC3)CCO4)cc2[nH]1 [Compound 26, 6-(4-{[4-(fluoromethyl)piperidin-1-yl]carbonyl}-2,3,4,5-tetrahydro-1,4-benzoxazepin-7-yl)-1H-benzimidazol-2-amine]	0.2 to 0.5	≤ 0.05
Nc1nc2ccc(-c3ccc4c(c3)CN(C(=O)N3CCC(=O)CC3c3ccc(F)c(F)c3)CCO4)cc2[nH]1 (centres unmarked) [Compound 27, 1-{[7-(2-amino-1H-benzimidazol-6-yl)-2,3-dihydro-1,4-benzoxazepin-4(5H)-yl]carbonyl}-2-(3,4-difluorophenyl)piperidin-4-one]	0.075 to 0.2	≤ 0.05
Nc1nc2ccc(-c3ccc4c(c3)CN(C(=O)N3CCC(=O)CC3c3cccc(F)c3)CCO4)cc2[nH]1 (centres unmarked) [Compound 28, 1-{[7-(2-amino-1H-benzimidazol-6-yl)-2,3-dihydro-1,4-benzoxazepin-4(5H)-yl]carbonyl}-2-(3-fluorophenyl)piperidin-4-one]	0.075 to 0.2	≤ 0.05
CCNc1nc2ccc(-c3ccc4c(c3)CN(C(=O)N3CCC(CF)CC3)CCO4)cc2[nH]1 [Compound 29, N-ethyl-6-(4-{[4-(fluoromethyl)piperidin-1-yl]carbonyl}-2,3,4,5-tetrahydro-1,4-benzoxazepin-7-yl)-1H-benzimidazol-2-amine]	0.075 to 0.2	≤ 0.05
CCNc1nc2ccc(-c3ccc4c(c3)CN(C(=O)N3CCC(=O)CC3c3cccc(F)c3)CCO4)cc2[nH]1 (centres unmarked) [Compound 30, 1-({7-[2-(ethylamino)-1H-benzimidazol-6-yl]-2,3-dihydro-1,4-benzoxazepin-4(5H)-yl}carbonyl)-2-(3-fluorophenyl)piperidin-4-one]	≤ 0.075	≤ 0.05
